Measurements taken from patent US12454529B2, “Piperazine cyclic ureas” (SIRONAX LTD., priority 2020, dated 2025).

test system: HT-29 cells; assay: HT-29 cell necrosis/necroptosis inhibition (TNF-α + SMAC mimetic + zVAD-FMK; CellTiter-Glo cell viability); assay type: cell-based; settings: HT-29 cells, TNF-α 10 ng/ml + SMAC mimetic 6 μM + zVAD-FMK 10 μM, 20 hours; geometric mean, 10 points in duplicate; read-out: EC50 (Cell activity; Necrosis/Necroptosis Inhibitory Activity, Compounds 143-323)
Summary of the method: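 HT-29 cells (~5,000/well) were switched to FBS-free McCOY's 5A holding TNF-α (10 ng/ml), SMAC mimetic (6 μM) and zVAD-FMK (10 μM), then dosed with a 10-point 1:3 series for 20 h at 37 °C. CellTiter-Glo luminescence gave viability; geometric mean EC50 from duplicates.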

Row | SMILES | EC50 [nM]
1 | Cc1nc(C)n(-c2nc(N3CCN(C(=O)N4N=CCC4c4cnc(C)s4)CC3)ncc2F)n1 (centres unmarked) [Compound 214, (4-(4-(3,5-dimethyl-1H-1,2,4-triazol-1-yl)-5-fluoropyrimidin-2-yl)piperazin-1-yl)(5-(2-methylthiazol-5-yl)-4,5-dihydro-1H-pyrazol-1-yl)methanone] | 0.1 to 100

same assay, conditions: Homo sapiens; HT-29 cells, TNF-α 10 ng/ml + SMAC mimetic 6 μM + zVAD-FMK 10 μM, 20 hours; geometric mean, 10 points in duplicate; read-out: EC50 (Cell activity; Necrosis/Necroptosis Inhibitory Activity, Compounds 1-142)

Row | SMILES | EC50 [nM]
2 | Cn1nncc1-c1nc(N2CCN(C(=O)N3N=CC[C@H]3c3cc(F)cc(C#N)c3)CC2)ncc1F [Compound 41] | 0.1 to 100
3 | Cc1cc(-c2nc(N3CCN(C(=O)N4N=CC[C@H]4c4cc(F)cc(F)c4)CC3)ccc2F)n(C)n1 [Compound 115, (S)-(5-(3,5-difluorophenyl)-4,5-dihydro-1H-pyrazol-1-yl)(4-(6-(1,3-dimethyl-1H-pyrazol-5-yl)-5-fluoropyridin-2-yl)piperazin-1-yl)methanone] | 0.1 to 100
4 | O=C(N1CCN(c2nccc(-c3cc[nH]n3)n2)CC1)N1N=CC[C@H]1c1cc(F)cc(F)c1 [Compound 33, (S)-(4-(4-(1H-pyrazol-3-yl)pyrimidin-2-yl)piperazin-1-yl)(5-(3,5-difluorophenyl)-4,5-dihydro-1H-pyrazol-1-yl)methanone] | 0.1 to 100
5 | Cc1nn(C)cc1-c1nc(N2CCN(C(=O)N3N=CC[C@H]3c3cc(F)cc(F)c3)CC2)ncc1F [Compound 14, (S)-(5-(3,5-difluorophenyl)-4,5-dihydro-1H-pyrazol-1-yl)(4-(4-(1,3-dimethyl-1H-pyrazol-4-yl)-5-fluoropyrimidin-2-yl)piperazin-1-yl)methanone] | 0.1 to 100
6 | NC(=O)c1cnn(-c2nc(N3CCN(C(=O)N4N=CC[C@H]4c4cccc(F)c4)CC3)ncc2F)c1 [Compound 110, (S)-1-(5-fluoro-2-(4-(5-(3-fluorophenyl)-4,5-dihydro-1H-pyrazole-1-carbonyl)piperazin-1-yl)pyrimidin-4-yl)-1H-pyrazole-4-carboxamide] | 0.1 to 100
7 | Cc1nn(CC2COC2)c(C)c1-c1nc(N2CCN(C(=O)N3N=CC[C@H]3c3cc(F)cc(C#N)c3)CC2)ncc1F [Compound 135, (S)-3-(1-(4-(4-(3,5-dimethyl-1-(oxetan-3-ylmethyl)-1H-pyrazol-4-yl)-5-fluoropyrimidin-2-yl)piperazine-1-carbonyl)-4,5-dihydro-1H-pyrazol-5-yl) fluorobenzonitrile] | 0.1 to 100
8 | COc1nc(OC)c(-c2nc(N3CCN(C(=O)N4N=CC[C@H]4c4cc(F)cc(F)c4)CC3)ncc2F)c(OC)n1 [Compound 49, (S)-(5-(3,5-difluorophenyl)-4,5-dihydro-1H-pyrazol-1-yl)(4-(5-fluoro-2′,4′,6′-trimethoxy-[4,5′-bipyrimidin]-2-yl)piperazin-1-yl)methanone] | 0.1 to 100
9 | O=C(N1CCN(c2nccc(-c3cc[nH]n3)n2)CC1)N1N=CC[C@H]1c1ccccc1 [Compound 39, (S)-(4-(4-(1H-pyrazol-3-yl)pyrimidin-2-yl)piperazin-1-yl)(5-phenyl-4,5-dihydro-1H-pyrazol-1-yl)methanone] | 0.1 to 100
10 | N#Cc1cc(F)cc([C@@H]2CC=NN2C(=O)N2CCN(c3ncc(F)c(-n4cc(C#N)cn4)n3)CC2)c1 [Compound 127, (S)-1-(2-(4-(5-(3-cyano-5-fluorophenyl)-4,5-dihydro-1H-pyrazole-1-carbonyl)piperazin-1-yl)-5-fluoropyrimidin-4-yl)-1H-pyrazole-4-carbonitrile] | 0.1 to 100
11 | O=C(N1CCN(c2ncc(F)c(-c3cc[nH]n3)n2)CC1)N1N=CC[C@H]1c1cc(F)cc(F)c1 [Compound 7, (S)-(5-(3,5-difluorophenyl)-4,5-dihydro-1H-pyrazol-1-yl)(4-(5-fluoro-4-(1H-pyrazol-3-yl)pyrimidin-2-yl)piperazin-1-yl)methanone] | 0.1 to 100
12 | Cc1cc(-c2cc(N3CCN(C(=O)N4N=CC[C@H]4c4cc(F)cc(F)c4)CC3)ncc2F)n(C)n1 [Compound 116, (S)-(5-(3,5-difluorophenyl)-4,5-dihydro-1H-pyrazol-1-yl)(4-(4-(1,3-dimethyl-1H-pyrazol-5-yl)-5-fluoropyridin-2-yl)piperazin-1-yl)methanone] | 0.1 to 100
13 | COC(=O)c1cc(C)n(-c2nc(N3CCN(C(=O)N4N=CC[C@H]4c4cc(F)cc(F)c4)CC3)ncc2F)c1 [Compound 91, methyl (5)-1-(2-(4-(5-(3,5-difluorophenyl)-4,5-dihydro-1H-pyrazole-1-carbonyl)piperazin-1-yl)-5-fluoropyrimidin-4-yl)-5-methyl-1H-pyrrole-3-carboxylate] | 0.1 to 100
14 | CCn1c(C)nn(-c2nc(N3CCN(C(=O)N4N=CC[C@H]4c4cc(F)cc(C#N)c4)CC3)ncc2F)c1=O [Compound 97, (S)-3-(1-(4-(4-(4-ethyl-3-methyl-5-oxo-4,5-dihydro-1H-1,2,4-triazol-1-yl)-5-fluoropyrimidin-2-yl)piperazine-1-carbonyl)-4,5-dihydro-1H-pyrazol-5-yl)-5-fluorobenzonitrile] | 0.1 to 100
15 | O=C(N1CCN(c2ncc(F)c(-c3cn[nH]c3)n2)CC1)N1N=CC[C@H]1c1cc(F)cc(F)c1 [Compound 52, (S)-(5-(3,5-difluorophenyl)-4,5-dihydro-1H-pyrazol-1-yl)(4-(5-fluoro-4-(1H-pyrazol-4-yl)pyrimidin-2-yl)piperazin-1-yl)methanone] | 0.1 to 100

same assay, conditions: Homo sapiens; HT-29 cells, TNF-α 10 ng/ml + SMAC mimetic 6 μM + zVAD-FMK 10 μM, 20 hours; geometric mean, 10 points in duplicate; read-out: EC50 (Cell activity; Necrosis/Necroptosis Inhibitory Activity, Compounds 143-323)

Row | SMILES | EC50 [nM]
16 | Cc1nc(C)n(-c2nc(N3CCN(C(=O)N4N=CC[C@H]4c4cnc(C)s4)CC3)ncc2F)n1 [Compound 240, (S)-(4-(4-(3,5-dimethyl-1H-1,2,4-triazol-1-yl)-5-fluoropyrimidin-2-yl)piperazin-1-yl)(5-(2-methylthiazol-5-yl)-4,5-dihydro-1H-pyrazol-1-yl)methanone] | 0.1 to 100
17 | Cc1nn(-c2ccnc(N3CCN(C(=O)N4N=CC[C@H]4c4cc(F)cc(C#N)c4)CC3)n2)c(C)c1Br [Compound 273, (S)-3-(1-(4-(4-(4-bromo-3,5-dimethyl-1H-pyrazol-1-yl)pyrimidinyl)piperazine-1-carbonyl)-4,5-dihydro-1H-pyrazol-5-yl)-5-fluorobenzonitrile] | 0.1 to 100
18 | Cn1nc(C#N)nc1-c1nc(N2CCN(C(=O)N3N=CCC3c3cncc(F)c3)CC2)ncc1F (centres unmarked) [Compound 229, 5-(5-fluoro-2-(4-(5-(5-fluoropyridin-3-yl)-4,5-dihydro-1H-pyrazole-1-carbonyl)piperazin-1-yl)pyrimidin-4-yl)-1-methyl-1H-1,2,4-triazole-3-carbonitrile] | 0.1 to 100
19 | Cc1nn(-c2nc(N3CCN(C(=O)N4N=CC[C@H]4c4cc(F)cc(C#N)c4)CC3)ncc2F)c(C)c1C#N [Compound 275, (S)-1-(2-(4-(5-(3-cyano-5-fluorophenyl)-4,5-dihydro-1H-pyrazole-1-carbonyl)piperazin-1-yl)-5-fluoropyrimidin-4-yl)-3,5-dimethyl-1H-pyrazole-4-carbonitrile] | 0.1 to 100
20 | Cc1ncn(-c2nc(N3CCN(C(=O)N4N=CC[C@H]4c4ccccc4)CC3)ncc2F)n1 [Compound 309, (S)-(4-(5-fluoro-4-(3-methyl-1H-1,2,4-triazol-1-yl)pyrimidin-2-yl)piperazin-1-yl)(5-phenyl-4,5-dihydro-1H-pyrazol-1-yl)methanone] | 0.1 to 100
21 | Cn1nc(CO)nc1-c1nc(N2CCN(C(=O)N3N=CC[C@H]3c3cncc(F)c3)CC2)ncc1F [Compound 174, (S)-(4-(5-fluoro-4-(3-(hydroxymethyl)-1-methyl-1H-1,2,4-triazol-5-yl)pyrimidin-2-yl)piperazin-1-yl)(5-(5-fluoropyridin-3-yl)-4,5-dihydro-1H-pyrazol-1-yl)methanone] | 0.1 to 100
22 | CCn1c(C)nn(-c2nc(N3CCN(C(=O)N4N=CC[C@H]4c4cc(F)cc(C#N)c4)CC3)ncc2F)c1=O [Compound 181, (S)-3-(1-(4-(4-(4-ethyl-3-methyl-5-oxo-4,5-dihydro-1H-1,2,4-triazol-1-yl)-5-fluoropyrimidin-2-yl)piperazine-1-carbonyl)-4,5-dihydro-1H-pyrazol-5-yl) fluorobenzonitrile] | 0.1 to 100
23 | Cc1nc(C)n(-c2ncc(F)c(N3CCN(C(=O)N4N=CC[C@H]4c4cc(F)cc(F)c4)CC3)n2)n1 [Compound 257, (S)-(5-(3,5-difluorophenyl)-4,5-dihydro-1H-pyrazol-1-yl)(4-(2-(3,5-dimethyl-1H-1,2,4-triazol-1-yl)-5-fluoropyrimidin-4-yl)piperazin-1-yl)methanone] | 0.1 to 100
24 | CC(=O)Nc1c(C)nn(-c2nc(N3CCN(C(=O)N4N=CC[C@H]4c4cc(F)cc(F)c4)CC3)ncc2F)c1C [Compound 193, (S)—N-(1-(2-(4-(5-(3,5-difluorophenyl)-4,5-dihydro-1H-pyrazole-1-carbonyl)piperazin-1-yl)-5-fluoropyrimidin-4-yl)-3,5-dimethyl-1H-pyrazol-4-yl)acetamide] | 0.1 to 100
25 | Cc1ncn(-c2nc(N3CCN(C(=O)N4N=CC[C@H]4c4cccc(F)c4)CC3)ncc2F)n1 [Compound 310, (S)-(4-(5-fluoro-4-(3-methyl-1H-1,2,4-triazol-1-yl)pyrimidin-2-yl)piperazin-1-yl)(5-(3-fluorophenyl)-4,5-dihydro-1H-pyrazol-1-yl)methanone] | 0.1 to 100
26 | Cc1nn(-c2ccnc(N3CCN(C(=O)N4N=CC[C@H]4c4cncc(F)c4)CC3)n2)c(C)c1Cl [Compound 287, (S)-(4-(4-(4-chloro-3,5-dimethyl-1H-pyrazol-1-yl)pyrimidin-2-yl)piperazin-1-yl)(5-(5-fluoropyridin-3-yl)-4,5-dihydro-1H-pyrazol-1-yl)methanone] | 0.1 to 100
